Data published in patent publication US20240262842A1, “SMALL MOLECULE INHIBITORS OF KRAS G12C MUTANT” (Merck Sharp & Dohme LLC, priority 2021, published 2024).

molecular target: biotinylated KRAS G12C protein (GMP-PNP loaded) and GST-tagged Ras binding domain of c-RAF (Homo sapiens, UniProt P01116, C118S/C51S/C80L/G12C); test: RAS:RAF-RBD binding assay (TR-FRET); conditions: 30-minute incubation of compound with KRAS G12C before RAF-RBD; Table 4; read-out: IC50
Sequence (P01116 with tags, fused parts or gaps isoform P01116-2 G12C/C51S/C80L/C118S): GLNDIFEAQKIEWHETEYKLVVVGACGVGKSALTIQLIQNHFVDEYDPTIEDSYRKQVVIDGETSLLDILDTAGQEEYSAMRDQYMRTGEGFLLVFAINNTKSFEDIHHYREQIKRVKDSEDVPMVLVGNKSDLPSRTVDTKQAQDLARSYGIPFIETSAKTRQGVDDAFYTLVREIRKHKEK

Row | SMILES | IC50 [nM]
1 | Cc1nc2c3c(c(C(F)(F)F)cc2n1C)-c1cccn2c(C(=O)c4cc(F)c(NC(=O)C=CCN5CCCC5C5(O)CC5)c(F)c4)cc(c12)CCO3 (stereo not drawn) [Example 255, mono(2-(3,5-difluoro-4-((E)-4-((28)-2-(1-hydroxy-cyclopropyl)pyrrolidin-1-ium-1-yl)but-2-enamido)-benzoyl)-9,10-dimethyl-7-(trifluoromethyl)-13,14-dihydro-9H-imidazo-[4″,5″:5′,6′]benzo[1′,2′: 2,3]oxocino[4,5,6-hi]-indolizin-11-ium) mono-(2,2,2-trifluoroacetate)] | 11.7
2 | Cc1nc2c3c(c(C(F)(F)F)cc2n1C)-c1cccn2c(C(=O)c4cc(F)c(NC(=O)/C=C/C5CCCN5)c(F)c4)cc(c12)CCO3 (single isomer, unassigned) [Example 250, (E)-N-(4-(9,10-dimethyl-7-(trifluoromethyl)-13,14-dihydro-9H-imidazo-[4″,5″:5′,6′]benzo[1′,2′: 2,3]oxocino[4,5,6-hi]-dolizine-2-carbonyl)-2,6-difluorophenyl)-3-(pyrrol-idin-2-yl)acrylamide] | 54.9
3 | Cc1nc2c3c(c(C(F)(F)F)cc2n1C)-c1cccn2c(C(=O)c4cc(F)c(NC(=O)/C=C/CN5CCC[C@@]5(C)C(C)O)c(F)c4)cc(c12)CCO3 (single isomer, unassigned) [Example 258] | 6.69
4 | Cc1nc2c3c(c(OC(F)F)cc2n1C)-c1cccn2c(C(=O)c4cc(F)c(NC(=O)/C=C/CNC5(C)CC5)c(F)c4)cc(c12)CCN3C [Example 300, (E)-N-(4-(7-(difluoromethoxy)-9,10,12-trimethyl-9,12,13,14-tetrahydroimidazo[4″,5″:5′,6′]benzo[1′,2′:2,3]azocino[4,5,6-hi]indolizine-2-carbonyl)-2,6-difluorophenyl)-4-((1-methylcyclopropyl)amino)but-2-enamide] | 1.22
5 | Cc1nc2c3c(c(C(F)(F)F)cc2n1C)-c1cccn2c(C(=O)c4cc(F)c(NC(=O)/C=C/CN5CC6(CCOCC6)C5)c(F)c4)cc(c12)CCO3 [Example 280, (E)-2-(4-((4-(9,10-dimeth-yl-7-(trifluoromethyl)-13,14-dihydro-9H-imidazo[4″,5″:5′,6′]benzo-[1′,2′:2,3]oxocino[4,5,6-hi]indolizine-2-carbonyl)-2,6-difluorophenyl)amino)-4-oxobut-2-en-1-yl)-7-oxa-2-azaspiro[3.5]nonan-2-ium 2,2,2-trifluoroacetate] | 37.7
6 | Cc1nc2c3c(c(C(F)(F)F)cc2n1C)-c1cccn2c(C(=O)c4cc(F)c(NC(=O)/C=C/CNCC5(CO)COC5)c(F)c4)cc(c12)CCO3 [Example 279, (E)-4-((4-(9,10-dimethyl-7-(trifluoromethyl)-13,14-dihydro-9H-imidazo-[4″,5″:5′,6′]benzo[1′,2′: 2,3]oxocino[4,5,6-hi]-indolizine-2-carbonyl)-2,6-difluorophenyl)amino)-N-((3-(hydroxymethyl)oxetan-3-yl)methyl)-4-oxobut-2-en-1-aminium 2,2,2-trifluoroacetate] | 5.73
7 | Cc1nc2c3c(c(C(F)(F)F)cc2n1C)-c1cccn2c(C(=O)c4cc(F)c(NC(=O)/C=C/CN5CCC5CC(C)(C)O)c(F)c4)cc(c12)CCN3C (single isomer, unassigned) [Example 299, (E)-1-(4-((2,6-difluoro-4-(9,10,12-trimethyl-7-(trifluoromethyl)-9,12,13,14-tetrahydro-imidazo[4″,5″:5′,6′]benzo-[1′,2′:2,3]azocino[4,5,6-hi]indolizine-2-carbonyl)-phenyl)amino)-4-oxobut-2-en-1-yl)-2-(2-hydroxy-2-methylpropyl)azetidin-1-ium 2,2,2-trifluoroacetate] | 52.5
8 | Cc1nc2c3c(c(C(F)(F)F)cc2n1C)-c1cccn2c(C(=O)c4cc(F)c(NC(=O)/C=C/CNC5(C)COC5)c(F)c4)cc(c12)CC(C)O3 (single isomer, unassigned) [Example 272, mono((E)-2-(3,5-difluoro-4-(4-((3-methyloxetan-3-yl)ammonio)but-2-en-amido)benzoyl)-9,10,13-trimethyl-7-(trifluoro-methyl)-13,14-dihydro-9H-imidazo[4″,5″:5′,6′]-benzo[1′,2′:2,3]oxocino-[4,5,6-hi]indolizin-11-ium) mono(2,2,2-trifluoroacetate)] | 14.9
9 | Cc1nc2c3c(c(C(F)(F)F)cc2n1C)-c1cccn2c(C(=O)c4cc(F)c(NC(=O)/C=C/CNCC5(CO)CC5)c(F)c4)cc(c12)CCO3 [Example 281, (E)-4-((4-(9,10-dimethyl-7-(trifluoromethyl)-13,14-dihydro-9H-imidazo-[4″,5″:5′,6′]benzo[1′,2′: 2,3]oxocino[4,5,6-hi]-indolizine-2-carbonyl)-2,6-difluorophenyl)-amino)-N-((1-(hydroxy-methyl)cyclopropyl)meth-yl)-4-oxobut-2-en-1-aminium 2,2,2-trifluoro-acetate] | 3.8
10 | COCc1nc2c3c(c(OC)cc2n1C)-c1cccn2c(C(=O)c4cc(F)c(NC(=O)/C=C/CN5CC[C@H](O)C5)c(F)c4)cc(c12)CCN3C [Example 289, mono(2-(3,5-difluoro-4-((E)-4-((3S)-3-hydroxy-pyrrolidin-1-ium-1-yl)but-2-enamido)benzoyl)-7-methoxy-10-(methoxy-methyl)-9,12-dimethyl-9,12,13,14-tetrahydro-imidazo[4″,5″:5′,6′]benzo-[1′,2′:2,3]azocino[4,5,6-hi]indolizin-11-ium) mono(2,2,2-trifluoro-acetate)] | 68.8
11 | Cc1nc2c3c(c(C(F)(F)F)cc2n1C)-c1cccn2c(C(=O)c4cc(F)c(NC(=O)/C(F)=C/CN[C@@H]5CCOC5)c(F)c4)cc(c12)CCO3 (atropisomer, axis not shown) [Example 252, (R,Z)-N-(4-(9,10-dimethyl-7-(trifluoromethyl)-13,14-dihydro-9H-imidazo[4″,5″:5′,6′]benzo[1′,2′:2,3]oxocino[4,5,6-hi]indolizine-2-carbonyl)-2,6-difluorophenyl)-2-fluoro-4-((tetrahydrofuran-3-yl)amino)but-2-enamide] | 25.7
12 | Cc1nc2c3c(c(C(F)(F)F)cc2n1C)-c1cccn2c(C(=O)c4cc(F)c(NC(=O)C=CCN5CCC5CC(=O)N(C)C)c(F)c4)cc(c12)CCO3 [Example 254, mono(2-(4-((E)-4-((2S)-2-(2-(dimethylamino)-2-oxoethyl)azetidin-1-ium-1-yl)but-2-enamido)-3,5-difluorobenzoyl)-9,10-dimethyl-7-(trifluorometh-yl)-13,14-dihydro-9H-imidazo[4″,5″:5′,6′]benzo-[1′,2′:2,3]oxocino[4,5,6-hi]indolizin-11-ium) mono(2,2,2-trifluoro-acetate)] | 20.9
13 | Cc1nc2c3c(c(C(F)(F)F)cc2n1C)-c1cccn2c(C(=O)c4cc(F)c(NC(=O)/C=C/CN5CCC[C@H]5CO)c(F)c4)cc(c12)CCO3 [Example 256, mono(2-(3,5~difluoro-4-((E)-4-((2S)-2-(hydroxy-methyl)pyrrolidin-1-ium-1-yl)but-2-enamido)ben-zoyl)-9,10-dimethyl-7-(trifluoromethyl)-13,14-dihydro-9H-imidazo-[4,5″:5′,6′]benzo[1′,2′: 2,3]oxocino[4,5,6-hi]-indolizin-11-ium) mono-(2,2,2-trifluoroacetate)] | 4.7
14 | Cc1nc2c3c(c(C(F)(F)F)cc2n1C)-c1cccn2c(C(=O)c4cc(F)c(NC(=O)C=CCN5CC6CC5CO6)c(F)c4)cc(c12)CCO3 [Example 257, mono(2-(4-((E)-4-((1S,4S)-2-oxa-5-aza-bicyclo-[2.2.1]heptan-5-ium-5-yl)but-2-enamido)-3,5-difluorobenzoyl)-9,10-dimethyl-7-(trifluorometh-yl)-13,14-dihydro-9H-imidazo[4″,5″:5′,6′]benzo-[1′,2′:2,3]oxocino[4,5,6-hi]indolizin-11-ium) mono(2,2,2-trifluoro-acetate)] | 9.69
15 | COCc1nc2c3c(c(OC)cc2n1C)-c1cccn2c(C(=O)c4cc(F)c(NC(=O)/C=C/CN5CC6(CCCOC6)C5)c(F)c4)cc(c12)CCN3C (single isomer, unassigned) [Example 292, mono((E)-2-(4-((2,6-difluoro-4-(7-methoxy-10-(methoxymethyl)-9,12-dimethyl-9,12,13,14-tetra-hydroimidazo[4″,5″: 5′,6′]benzo[1′,2′:2,3]azo-cino[4,5,6-hi]indolizin-11-ium-2-carbonyl)phenyl)-amino)-4-oxobut-2-en-1-yl)-6-oxa-2-azaspiro[3.5]-nonan-2-ium) mono(2,2,2-trifluoroacetate)] | 84.9
16 | Cc1nc2c3c(c(C(F)(F)F)cc2n1C)-c1cccn2c(C(=O)c4cc(F)c(NC(=O)/C=C/CNC5CCOC5)c(F)c4)cc(c12)CCO3 (single isomer, unassigned) [Example 269, (E)-N-(4-(9,10-dimethyl-7-(trifluoromethyl)-13,14-dihydro-9H-imidazo-[4″,5″:5′,6′]benzo[1′,2′: 2,3]oxocino[4,5,6-hi]-indolizine-2-carbonyl)-2,6-difluorophenyl)-4-((tetrahydrofuran-3-yl)-amino)but-2-enamide] | 9.82
17 | Cc1nc2c3c(c(C(F)(F)F)cc2n1C)-c1cccn2c(C(=O)c4cc(F)c(NC(=O)/C(F)=C/CNC5(C)CCOCC5)c(F)c4)cc(c12)CCO3 (atropisomer, axis not shown) [Example 296, (Z)-N-(4-(9,10-dimethyl-7-(trifluoromethyl)-13,14-dihydro-9H-imidazo[4″,5″:5′,6′]benzo[1′,2′:2,3]oxocino[4,5,6-hi]indolizine-2-carbonyl)-2,6-difluorophenyl)-2-fluoro-4-((4-methyltetrahydro-2H-pyran-4-yl)amino)but-2-enamide] | 14.8

same assay, conditions: IC50, 30-minute incubation of compound with KRAS G12C before RAF-RBD; Table 4

Row | SMILES | IC50 [nM]
18 | CO[C@H]1CC[C@H](NC/C=C/C(=O)Nc2ccc(C(=O)c3cn4c5c(cccc35)-c3c(C(F)(F)F)cc5c(nc(C)n5C)c3OCC4)cc2)CC1 [Example 263, mono(2-(4-((E)-4-(((1r, 4r)-4-methoxycyclohexyl)-ammonio)but-2-enamido)-benzoyl)-8,9-dimethyl-6-(trifluoromethyl)-12,13-dihydro-8H-imidazo-[4″,5″:3′,4′]benzo[1′,2′: 7,8][1,4]oxazocino[6,5,4-hi]indol-10-ium) mono-(2,2,2-trifluoroacetate)] | 9.25
